From US20040167192A1, “Methods of treating conditions associated with an Edg-7 receptor” (priority 2003, published 2004) come the findings set out here.

Series [1] addresses T1, human Edg 7 receptors (Homo sapiens, UniProt Q9UBY5).
T1 construct: expressed in transfected cells; host or cells: HTC rat hepatoma cells
T1 sequence (Q9UBY5 1-353): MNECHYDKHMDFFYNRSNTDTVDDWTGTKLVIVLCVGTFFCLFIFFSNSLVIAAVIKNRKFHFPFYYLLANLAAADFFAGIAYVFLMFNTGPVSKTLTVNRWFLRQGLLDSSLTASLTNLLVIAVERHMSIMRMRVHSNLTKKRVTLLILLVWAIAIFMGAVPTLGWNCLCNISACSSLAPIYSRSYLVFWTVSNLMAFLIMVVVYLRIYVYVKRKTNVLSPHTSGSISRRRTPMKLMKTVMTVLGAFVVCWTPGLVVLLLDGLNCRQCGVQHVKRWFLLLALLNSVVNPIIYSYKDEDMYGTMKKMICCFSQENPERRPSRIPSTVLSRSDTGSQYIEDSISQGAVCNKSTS
The series can be described thus: Intracellular calcium mobilization (FLIPR) in HTC cells expressing Edg-7. It is filed as cell-based. As for the experimental part: The compounds were tested in HTC cells expressing human Edg 7 receptors. […] The compounds are tested in this recombinant system first, and subsequently tested in cell lines expressing Edg-7 (in addition to other Edg receptors).
The compounds were tested in HTC cells expressing human Edg 7 receptors. […] The compounds are tested in this recombinant system first, and subsequently tested in cell lines expressing Edg-7 (in addition to other Edg receptors). […] The calcium mobilization assays were conducted as described in Section 6.6 (Example 6).
LPA receptors such as Edg-7, couple to calcium effector pathways, and result in increases in intracellular calcium following receptor activation (An, 1998, J. Cell. Biochem Supp. 30-31:147-157). This biological response lends itself to a very efficient, high-throughput screen using a Fluorescence Imaging Plate Reader (FLIPR; Molecular Devices, Sunnyvale, Calif.). The FLIPR system is a real-time, cell-based assay system with continuous fluorescence detection using a cooled CCD camera. The FLIPR system was used to developing an Edg-7 receptor screen. Rat hepatoma cells stably expressing Edg-7 receptor were plated on 384-well plates and loaded with a calcium dye loading kit (Molecular Devices, Sunnyvale, Calif.) for 1 hour at room temperature. Cells were then placed on the FLIPR^384 (Molecular Devices, Sunnyvale, Calif.) and excited by an argon laser at 488 nm. The data for the entire 384-well plate was updated every second. An integrated robotic pipettor allowed for simultaneous compound addition into each individual well in the plate.

Series [2] has as its target T2, Edg-2 (Homo sapiens, UniProt Q92633).
T2 construct: expressed in transfected cells; host or cells: HTC rat hepatoma cells
Briefly: Intracellular calcium mobilization (FLIPR) in HTC cells expressing Edg-2. The class given is cell-based.

The target in series [3] is T3, Edg-4 (Homo sapiens, UniProt Q9HBW0).
T3 construct: expressed in transfected cells; host or cells: HTC rat hepatoma cells
Briefly: Intracellular calcium mobilization (FLIPR) in HTC cells expressing Edg-4. The class given is cell-based.

Series [4] deals with T4, Edg-1 (Homo sapiens, UniProt P21453).
T4 construct: expressed in transfected cells; host or cells: HTC rat hepatoma cells
The series can be described thus: Intracellular calcium mobilization (FLIPR) in HTC cells expressing Edg-1. The class given is cell-based.

Series [5] deals with T5, Edg-3 (Homo sapiens, UniProt Q99500).
T5 construct: expressed in transfected cells; host or cells: HTC rat hepatoma cells
Briefly: Intracellular calcium mobilization (FLIPR) in HTC cells expressing Edg-3. It is filed as cell-based.

Series [6] deals with T6, Edg-5 (Homo sapiens, UniProt O95136).
T6 construct: expressed in transfected cells; host or cells: HTC rat hepatoma cells
The series can be described thus: Intracellular calcium mobilization (FLIPR) in HTC cells expressing Edg-5. The class given is cell-based.

Series [7] deals with T7, Edg-6 (Homo sapiens, UniProt O95977).
T7 construct: expressed in transfected cells; host or cells: HTC rat hepatoma cells
T7 sequence (O95977 1-384): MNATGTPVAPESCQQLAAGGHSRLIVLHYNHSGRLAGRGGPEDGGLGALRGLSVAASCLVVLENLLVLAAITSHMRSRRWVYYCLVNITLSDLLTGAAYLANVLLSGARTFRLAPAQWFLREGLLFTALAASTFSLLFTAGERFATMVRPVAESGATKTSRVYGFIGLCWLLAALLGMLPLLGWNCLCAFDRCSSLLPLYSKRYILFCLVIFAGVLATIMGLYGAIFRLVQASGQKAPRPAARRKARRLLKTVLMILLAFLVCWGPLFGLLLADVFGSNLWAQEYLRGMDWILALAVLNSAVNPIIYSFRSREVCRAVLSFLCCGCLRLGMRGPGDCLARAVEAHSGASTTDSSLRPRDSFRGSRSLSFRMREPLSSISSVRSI
The series can be described thus: Intracellular calcium mobilization (FLIPR) in HTC cells expressing Edg-6. The class given is cell-based.

The target of series [8] is T8, Edg-8 (Homo sapiens, UniProt Q9H228).
T8 construct: expressed in transfected cells; host or cells: HTC rat hepatoma cells
Briefly: Intracellular calcium mobilization (FLIPR) in HTC cells expressing Edg-8. It is filed as cell-based.

For series [9], the system named is untransfected HTC cells. Briefly: Intracellular calcium mobilization (FLIPR) in untransfected HTC cells. The class given is cell-based, rat. To be noted: concentrations as high as 25 μM.
Where [10] appears, read: HTC cells expressing human Edg 7 receptors.
Where [11] appears, read: concentrations as high as 20 μM.
Setting [12] is: concentrations as high as 25 μM.

T2 sequence (Q92633 whole entry): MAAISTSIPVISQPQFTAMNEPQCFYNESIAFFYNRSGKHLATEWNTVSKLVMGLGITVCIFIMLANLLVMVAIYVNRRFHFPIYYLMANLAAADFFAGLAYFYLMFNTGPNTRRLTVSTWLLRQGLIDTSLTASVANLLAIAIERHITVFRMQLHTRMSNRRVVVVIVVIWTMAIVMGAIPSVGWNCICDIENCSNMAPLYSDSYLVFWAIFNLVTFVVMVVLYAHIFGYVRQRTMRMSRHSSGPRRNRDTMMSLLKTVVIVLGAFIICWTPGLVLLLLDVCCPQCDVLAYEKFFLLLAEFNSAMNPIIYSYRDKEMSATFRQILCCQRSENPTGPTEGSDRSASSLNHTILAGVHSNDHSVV
T6 sequence (O95136 whole entry): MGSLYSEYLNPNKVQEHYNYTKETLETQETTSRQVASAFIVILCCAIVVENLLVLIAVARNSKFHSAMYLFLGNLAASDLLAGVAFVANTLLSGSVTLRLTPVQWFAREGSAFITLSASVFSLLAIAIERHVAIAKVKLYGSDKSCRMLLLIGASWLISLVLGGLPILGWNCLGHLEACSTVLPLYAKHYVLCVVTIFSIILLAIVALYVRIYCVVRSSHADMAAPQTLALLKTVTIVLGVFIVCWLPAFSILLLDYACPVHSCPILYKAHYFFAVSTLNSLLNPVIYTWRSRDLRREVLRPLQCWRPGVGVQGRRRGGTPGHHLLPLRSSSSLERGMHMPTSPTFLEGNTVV
T5 sequence (Q99500 whole entry): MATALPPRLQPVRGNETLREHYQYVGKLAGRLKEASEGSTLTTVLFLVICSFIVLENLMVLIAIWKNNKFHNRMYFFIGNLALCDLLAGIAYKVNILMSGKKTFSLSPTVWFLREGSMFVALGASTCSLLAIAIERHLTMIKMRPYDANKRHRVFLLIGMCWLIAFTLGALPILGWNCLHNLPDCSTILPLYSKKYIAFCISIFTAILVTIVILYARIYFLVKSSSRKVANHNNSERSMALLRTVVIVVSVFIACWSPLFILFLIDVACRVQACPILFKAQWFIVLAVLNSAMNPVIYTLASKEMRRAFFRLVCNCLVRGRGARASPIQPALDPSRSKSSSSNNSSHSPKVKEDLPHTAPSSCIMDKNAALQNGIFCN
T3 sequence (Q9HBW0 whole entry): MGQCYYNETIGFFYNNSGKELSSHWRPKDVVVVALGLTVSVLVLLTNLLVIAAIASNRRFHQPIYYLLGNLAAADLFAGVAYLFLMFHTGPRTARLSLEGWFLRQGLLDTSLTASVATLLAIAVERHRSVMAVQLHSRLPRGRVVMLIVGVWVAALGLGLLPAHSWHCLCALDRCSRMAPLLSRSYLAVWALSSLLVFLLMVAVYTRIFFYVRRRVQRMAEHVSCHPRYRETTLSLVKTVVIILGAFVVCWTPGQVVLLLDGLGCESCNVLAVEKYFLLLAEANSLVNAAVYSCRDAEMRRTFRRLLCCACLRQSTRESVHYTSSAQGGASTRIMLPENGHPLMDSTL
T4 sequence (P21453 whole entry): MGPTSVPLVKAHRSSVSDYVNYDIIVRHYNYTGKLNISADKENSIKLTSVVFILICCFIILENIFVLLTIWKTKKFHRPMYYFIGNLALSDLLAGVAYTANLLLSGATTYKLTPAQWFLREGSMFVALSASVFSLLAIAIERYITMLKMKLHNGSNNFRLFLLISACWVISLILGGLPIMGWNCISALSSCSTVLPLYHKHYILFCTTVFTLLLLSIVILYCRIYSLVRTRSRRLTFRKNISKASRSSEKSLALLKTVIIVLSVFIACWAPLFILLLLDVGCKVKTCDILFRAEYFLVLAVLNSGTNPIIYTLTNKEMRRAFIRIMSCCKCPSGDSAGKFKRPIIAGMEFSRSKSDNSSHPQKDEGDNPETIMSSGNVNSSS
T8 sequence (Q9H228 whole entry): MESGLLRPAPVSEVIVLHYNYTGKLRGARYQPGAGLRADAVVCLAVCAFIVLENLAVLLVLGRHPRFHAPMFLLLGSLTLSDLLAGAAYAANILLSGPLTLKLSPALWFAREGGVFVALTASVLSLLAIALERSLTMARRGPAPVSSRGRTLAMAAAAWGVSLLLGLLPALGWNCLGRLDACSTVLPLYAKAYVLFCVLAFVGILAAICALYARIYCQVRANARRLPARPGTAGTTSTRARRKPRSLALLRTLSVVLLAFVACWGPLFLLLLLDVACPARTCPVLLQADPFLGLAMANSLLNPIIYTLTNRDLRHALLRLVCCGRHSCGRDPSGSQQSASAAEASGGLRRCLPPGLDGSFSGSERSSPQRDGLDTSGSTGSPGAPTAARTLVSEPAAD

Regarding `Cc1ccc(S(=O)(=O)N=C2NC(=O)/C(=C3/C(=O)Nc4ccccc43)S2)cc1` [Compound 105, 4-Methyl-N-[4-oxo-5-(2-oxo1,2-dihydroindol-3-ylidene)thiazolidin-2-ylidene]-benzenesulfonamide], the “inhibition of Edg-7 stimulated LPA responses” value in [1] (setting [10]) was “demonstrate inhibition”. Also, the “selectivity for Edg 7” value in series [1] (tested on HTC cells expressing Edg-7) was “exhibited selectivity”. For the same compound, the “inhibition of LPA-stimulated calcium increases” value in series [2] (setting [11]) and in [3] (setting [11]) was “did not inhibit” throughout. The “inhibition of S1P-stimulated calcium increases” value in series [4] (setting [11]), in [5] (setting [11]), in [6] (setting [11]), in series [7] (setting [11]) and in series [8] (setting [11]) was “did not inhibit” in each case.
Consider `O=C(O)COc1ccc(Br)cc1/C=C1\S/C(=N\c2ccc(Cl)cc2)NC1=O` [Compound 107, 4-Bromo-2-[2-(4-chlorophenylamino)-4-oxothiazolidin-5-ylidenemethyl]phenoxyacetic acid], for which the “inhibition of Edg-7 stimulated LPA responses” value in series [1] (setting [10]) is “demonstrate inhibition”.
On to `CCCCCC(CCCCC)=N/N=C1\NC(=O)C(CC(=O)O)S1` (centres unmarked) [Compound 127, 4-Oxo-2-[(1-pentylhexylidene)hydrazono]thiazolidin-5-ylacetic acid], for which the melting point lay within 134 to 135 °C. Further, the “activation of the Edg-7 receptor” value in [1] (setting [10]) was “specifically activate”. Moreover, the “stimulation of calcium increases” value in series [2] (setting [12]) was “did not stimulate calcium increases”. Moreover, the “stimulation of calcium increases” value in series [3] (setting [12]) is “did not stimulate calcium increases”. Also, in series [4] (setting [12]), the “stimulation of calcium increases” value is “did not stimulate calcium increases”. The “stimulation of calcium increases” value in series [5] (setting [12]) is recorded as “did not stimulate calcium increases”. Also, in series [6] (setting [12]), the “stimulation of calcium increases” value is “did not stimulate calcium increases”. Besides, the “stimulation of calcium increases” value in series [7] (setting [12]) is “did not stimulate calcium increases”. Also, in series [8] (setting [12]), the “stimulation of calcium increases” value is “did not stimulate calcium increases”. Further, in series [9], the “stimulation of calcium increases” value is “did not stimulate calcium increases”.
